Measurements taken from ChEMBL document CHEMBL4387751, “Development of substituted pyrido[3,2-d]pyrimidines as potent and selective dihydrofolate reductase inhibitors for pneumocystis pneumonia infection” (Bioorg Med Chem Lett, 2019).

How the values were obtained:
Dihydrofolate reductase [1] = target: T1, Dihydrofolate reductase (Homo sapiens, UniProt P00374); assay: Inhibition of recombinant human DHFR assessed as reduction in consumption of NADPH using 9 uM DHFA as substrate
T1 sequence (P00374 whole entry): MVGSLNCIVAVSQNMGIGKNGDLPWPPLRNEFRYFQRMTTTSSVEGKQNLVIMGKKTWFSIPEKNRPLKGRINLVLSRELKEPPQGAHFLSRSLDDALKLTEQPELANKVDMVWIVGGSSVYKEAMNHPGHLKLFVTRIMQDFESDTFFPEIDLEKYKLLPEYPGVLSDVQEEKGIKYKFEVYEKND

[2] = system: DHFR (human versus Pneumocystis jirovecii); assay: Selectivity ratio of IC50 for inhibition of recombinant human DHFR using 9 uM DHFA as substrate to IC50 for inhibition of Pneumocystis jirovecii DHFR using 9 uM DHFA as substrate; type: toxicity; conditions: recombinant human DHFR and Pneumocystis jirovecii DHFR, probe DHFA (substrate), read-out: Ratio IC50
[3] = Inhibition of Pneumocystis jirovecii DHFR expressed in Escherichia coli Rosetta-gami B (DE3) assessed as reduction in consumption of NADPH using 9 uM DHFA as substrate
[4] = Inhibition of Pneumocystis jirovecii DHFR expressed in Escherichia coli Rosetta-gami B (DE3) assessed as reduction in consumption of NADPH using 18 uM DHFA as substrate
[5] = system: DHFR (human versus Pneumocystis jirovecii); assay: Selectivity ratio of IC50 for inhibition of recombinant human DHFR using 18 uM DHFA as substrate to IC50 for inhibition of Pneumocystis jirovecii DHFR using 18 uM DHFA as substrate; type: toxicity; conditions: recombinant human DHFR and Pneumocystis jirovecii DHFR, probe DHFA (substrate), read-out: Ratio IC50
Dihydrofolate reductase [6] = target: T2, Dihydrofolate reductase (Rattus norvegicus, UniProt Q920D2); assay: Inhibition of rat liver DHFR assessed as reduction in consumption of NADPH using DHFA as substrate
T2 sequence (Q920D2 whole entry): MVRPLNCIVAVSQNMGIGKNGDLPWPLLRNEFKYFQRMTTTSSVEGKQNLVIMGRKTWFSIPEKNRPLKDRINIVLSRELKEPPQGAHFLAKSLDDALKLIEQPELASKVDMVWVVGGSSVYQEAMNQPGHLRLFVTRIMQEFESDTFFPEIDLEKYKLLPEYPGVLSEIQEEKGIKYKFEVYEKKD

[7] = Inhibition of Pneumocystis carinii DHFR expressed in Escherichia coli Rosetta-gami B (DE3) assessed as reduction in consumption of NADPH using DHFA as substrate

Row | Compound | IC50 (Dihydrofolate reductase [1]) [nM] | selectivity ratio [2] | IC50 [3] [nM] | IC50 [4] [nM] | further results
1 | Nc1nc(N)c2nc(Nc3ccc4ccccc4c3)ccc2n1 | 3180 | 12 | 275 | – | –
2 | Nc1nc(N)c2nc(Nc3ccccc3)ccc2n1 | 1530 | 13 | 122 | – | –
3 | COc1ccc(Nc2ccc3nc(N)nc(N)c3n2)cc1 | 2460 | – | 239 | – | –
4 | Nc1nc(N)c2cc(Nc3ccccc3)cnc2n1 | – | – | – | 300 | selectivity ratio [5]: < 1
5 | COc1ccc(Nc2cnc3nc(N)nc(N)c3c2)cc1 | – | – | – | 400 | –
6 | Cc1ccc(Nc2cnc3nc(N)nc(N)c3c2)cc1 | – | – | – | 620 | selectivity ratio [5]: 3
7 | Nc1nc(N)c2cc(Nc3ccc4ccccc4c3)cnc2n1 | – | – | – | 400 | selectivity ratio [5]: 5
8 | Nc1nc(N)c2cc(Nc3cccc4ccccc34)cnc2n1 | – | – | – | 250 | selectivity ratio [5]: 8
9 | Nc1nc(N)c2cc(Nc3cc(F)c(F)c(F)c3)cnc2n1 | – | – | – | 870 | selectivity ratio [5]: 4
10 | COc1ccc(OC)c(NCc2cnc3nc(N)nc(N)c3c2)c1 | – | – | – | – | IC50 (Dihydrofolate reductase [6]): 500 nM
11 | CCCCN(c1ccccc1)c1ccc2nc(N)nc(N)c2n1 | – | – | 66 | – | –
12 | Nc1nc(N)c2nc(Nc3cccc4ccccc34)ccc2n1 | 1100 | 10 | 112 | – | –
13 | Cc1ccc(Nc2ccc3nc(N)nc(N)c3n2)cc1 | 2630 | 15 | 174 | – | –
14 | Nc1nc(N)c2nc(Nc3ccc(F)c(F)c3)ccc2n1 | 2250 | 28 | 80 | – | –
15 | Nc1nc(N)c2nc(Nc3cc(F)c(F)c(F)c3)ccc2n1 | – | 12 | 155 | – | –
16 | CCN(c1ccccc1)c1ccc2nc(N)nc(N)c2n1 | – | – | 150 | – | –
17 | Nc1nc(N)c2nc(Nc3ccc(O)cc3)ccc2n1 | 1580 | 10 | 150 | – | –
18 | COc1ccc(OC)c(NCc2ccc3nc(N)nc(N)c3n2)c1 | – | – | – | – | IC50 [7]: 1400 nM
19 | COc1cc(NCc2ccc3nc(N)nc(N)c3c2C)cc(OC)c1OC [TRIMETREXATE] | – | – | – | 2.1 | –
